These results are taken from US6846660B2, “Method of making an aldehyde dehydrogenase with gluconobacter” (Roche Vitamins Inc., priority 1997, dated 2005).

One experiment addresses T1, aldehyde dehydrogenase (ADH) (Ketogulonicigenium vulgare, UniProt Q402A8).
T1 sequence (Q402A8 32-609): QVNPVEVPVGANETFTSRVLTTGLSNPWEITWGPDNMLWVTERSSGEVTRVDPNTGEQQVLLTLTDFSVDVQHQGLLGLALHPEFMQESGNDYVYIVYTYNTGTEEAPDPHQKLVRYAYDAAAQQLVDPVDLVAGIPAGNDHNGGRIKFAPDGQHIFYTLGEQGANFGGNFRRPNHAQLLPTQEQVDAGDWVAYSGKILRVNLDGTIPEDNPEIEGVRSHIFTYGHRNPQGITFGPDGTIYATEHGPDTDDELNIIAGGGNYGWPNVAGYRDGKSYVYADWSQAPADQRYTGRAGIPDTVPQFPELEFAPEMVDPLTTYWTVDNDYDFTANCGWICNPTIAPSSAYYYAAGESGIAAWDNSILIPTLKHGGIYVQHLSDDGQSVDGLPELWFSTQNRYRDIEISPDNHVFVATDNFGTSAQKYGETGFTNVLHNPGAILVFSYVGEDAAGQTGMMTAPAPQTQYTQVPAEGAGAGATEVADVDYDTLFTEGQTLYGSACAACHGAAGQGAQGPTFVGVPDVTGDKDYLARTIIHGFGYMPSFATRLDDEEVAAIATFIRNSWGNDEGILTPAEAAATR
The experiment is described as follows: Identification of the oxidation products. In kind it is biochemical, Gluconobacter oxydans DSM No. 4025 (FERM BP-3812).
Details: not given
On the procedure: The reaction mixture containing the purified enzyme (1.56 mg), L-sorbosone (0.142 mg), PMS (0.008 mg) and PQQ (0.3 mg) in 40μl of the buffer was incubated for 1.5 hours at 30° C. The reaction product was analyzed on thin layer chromatography and HPLC. As a result, the reaction product was identified as 2-KGA in comparison with an authentic sample of 2-KGA.
As to `O=C[C@@H](O)[C@@H](O)[C@H](O)[C@@H](O)CO` [L-Gulose], the Product result is reported as “L-Gulonic acid”.

On to `O=C[C@H](O)[C@@H](O)[C@@H](O)[C@H](O)CO` [D-Galactose], for which the Product entry was “D-Galactonic acid”.

Staying with this experiment, now noted: products of the oxidation of the substrates of Table 1A.
Turning to `O=CC(=O)[C@@H](O)[C@H](O)[C@@H](O)CO` [L-Sorbosone], the Product is reported as 2-KGA.

For `O=CC(=O)[C@@H](O)[C@H](O)[C@H](O)CO` [D-Glucosone], the Product is given as 2-Keto-D-gluconic acid.

Consider `O=C[C@@H](O)[C@H](O)[C@H](O)CO` [D-Arabinose], for which the Product result was “D-Arabonic acid”.

For the compound `O=C[C@H](O)[C@H](O)[C@H](O)CO` [D-Ribose], the Product result is given as “D-Ribonic acid”.

Turning to `O=C[C@H](O)[C@@H](O)[C@H](O)CO` [D-Xylose], the Product result is on record as “D-Xylonic acid”.

Turning to `O=C[C@@H](O)[C@@H](O)[C@H](O)[C@H](O)CO` [D-Mannose], the Product entry was “D-Mannoic acid”.

With `O=C[C@H](O)[C@@H](O)[C@H](O)[C@H](O)CO` [D-Glucose], the Product result was “D-Gluconate”.

Still in this experiment, the particulars now being: purified enzyme, PMS, PQQ, 1.5 hours at 30 °C; thin layer chromatography and HPLC.
Regarding `O=CC(=O)[C@@H](O)[C@H](O)[C@@H](O)CO` [L-Sorbosone], the reaction product identified is 2-KGA.

For the next experiment, the target named is T1, aldehyde dehydrogenase (ADH).
Assay: not given
It is filed as biochemical, Gluconobacter oxydans DSM No. 4025 (FERM BP-3812).
Details: not given
On the procedure: The reaction was started at 25° C. with L-sorbosone, and the enzyme activity was measured as the initial reduction rate of DCIP at 600 nm. […] The extinction coefficience of DCIP at pH 8.0 was taken as 15 mM^−1. A reference cuvette contained all the above constituents except L-sorbosone.
The effects of metal ions and inhibitors on the activity of the enzyme were examined by measuring the activity using the same assay method as described under 1) above. Each compound solution was stirred into the basal reaction mixture and the reaction was started with the addition of the enzyme.
On to `[Cl][Ti]([Cl])([Cl])[Cl]` [TiCl4], for which the Relative activity is recorded as 128.0%.

Consider `O=S(=O)([O-])[O-].O=S(=O)([O-])[O-].O=S(=O)([O-])[O-].[Fe+3].[Fe+3]` [Fe2(SO4)3.xH2O], for which the Relative activity is listed as 58.9% and the “effect on enzyme activity (in words)” value is on record as “inhibited the enzyme activity”.

In the case of `O.O.[Ca+2].[Cl-].[Cl-]` [CaCl2.2H2O], the Relative activity is recorded as 204.5% and the “stimulation of enzyme activity” value is recorded as “about 2 fold”.

With `O=C(O)CI` [Monoiodoacetate], the Relative activity was found to be 52.2%.

As to `O.O.O.O.O.O.[Cl-].[Cl-].[Co+2]` [CoCl2.6H2O], the Relative activity came out at 76.0% and the “effect on enzyme activity (in words)” value was “inhibited the enzyme activity”.

Regarding `[F-].[Na+]` [NaF], the Relative activity stood at 86.7%.

In the case of `[N-]=[N+]=[N-].[Na+]` [NaN3], the Relative activity stood at 104.6%.

`O=S(=O)([O-])[O-].[Cu+2]` [CuSO4]: the Relative activity is given as 0.0% and the “effect on enzyme activity (in words)” value is listed as “inhibited the enzyme activity”.

On to `O.O.O.O.O.O.O=S(=O)([O-])[O-].[Ni+2]` [NiSO4.6H2O], for which the Relative activity turned out to be 74.9% and the “effect on enzyme activity (in words)” value is listed as “inhibited the enzyme activity”.

As for `[Cl-].[Cl-].[Zn+2]` [ZnCl2], the Relative activity was found to be 40.3% and the “effect on enzyme activity (in words)” value is reported as “inhibited the enzyme activity”.

For `[Cl-].[Cl-].[Mg+2]` [MgCl2], the Relative activity is 90.3%.

The same experiment, now with this note: compound at 1.0 mM; None = 100.0.
`CCN1C(=O)C=CC1=O` [N-Ethylmaleimide]: the Relative activity came to 110.8%.

The next experiment shares this target. The experiment is described as follows: Electron acceptor suitability for oxidation of L-sorbosone to 2-KGA. It is filed as biochemical, Gluconobacter oxydans DSM No. 4025 (FERM BP-3812).
Details: not given
An excerpt:
This was affirmed by the failure of the enzyme to convert L-sorbosone to 2-KGA using oxygen as a possible electron acceptor. Furthermore, no oxygen consumption was detected in the reaction mixture as detected with a dissolved oxygen probe. […] However, other conventional electron acceptors can be utilized in conjunction with the enzyme of this invention. DCIP, PMS, ferricyanide and cytochrome c are preferred electron acceptors. There is no minimum amount of electron acceptor which must be present for at least some of the aldehyde substrate to be converted to its corresponding acid. However, the amount of substrate which can be oxidized depends on the amount of the particular electron acceptor and its electron accepting characteristics.
Consider `O=O` [oxygen], for which the “suitability as electron acceptor” value is recorded as “does not work”.

Staying with this experiment, now noted: oxidation of L-sorbosone to 2-KGA by purified ADH.
In the case of `O=C1C=CC(=Nc2cc(Cl)c(O)c(Cl)c2)C=C1` [DCIP, 2,6-dichlorophenolindophenol], the “suitability as electron acceptor” value is “oxidizes L-sorbosone to 2-KGA in the presence of electron acceptors”.

As for cytochrome c, the “suitability as electron acceptor” value is listed as “oxidizes L-sorbosone to 2-KGA in the presence of electron acceptors”.

For “nicotinamide adenine dinucleotide phosphate [NADP]”, the “suitability as electron acceptor” value is on record as “not suitable electron acceptors”.

On to `COS(=O)(=O)[O-].C[n+]1c2ccccc2nc2ccccc21` [PMS, phenazine methosulfate], for which the “suitability as electron acceptor” value is “oxidizes L-sorbosone to 2-KGA in the presence of electron acceptors”.

For another experiment the target is unchanged. Description: Prosthetic group: PQQ requirement of the purified enzyme. In kind it is biochemical, Gluconobacter oxydans DSM No. 4025 (FERM BP-3812). The conditions noted are these: added to basal reaction mixture without PQQ.
As to `O=C(O)c1cc(C(=O)O)c2c(n1)C(=O)C(=O)c1cc(C(=O)O)[nH]c1-2` [PQQ, pyrroloquinoline quinone], the “effect of cofactor addition on enzyme activity” value was “restored”.
